The values that follow come from patent US12258328B2, “6-membered heteroaryl-containing aminopyridine compounds as EGFR inhibitors” (YUHAN CORPORATION, priority 2021, dated 2025).

Read-outs that look alike come from different tables or passages of the source.

Assay [1] concerns the target EGFR L858R/T790M/C797S (Homo sapiens, UniProt P00533, C797S/L858R/T790M). The experiment in a line: Biochemical EGFR kinase assay (Lance Ultra TR-FRET), triple mutant L858R/T790M/C797S. A digest of the protocol:
(§1)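 Step 1: compound in kinase buffer, 0.003–10 μM. Step 2: kinase reaction 1 h at room temperature. Step 4: TR-FRET read at 615/665 nm; IC50 calculated.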
For orientation: In TR-FRET formats the signal depends on donor and acceptor labels being close together.

Assay [2] addresses EGFR wildtype (Homo sapiens, UniProt P00533). The experiment in a line: Biochemical EGFR kinase assay (Lance Ultra TR-FRET), wildtype. In short, it runs like this: as §1
Assay [3] concerns the target EGFR L858R/C797S (Homo sapiens, UniProt P00533, C797S/L858R). The experiment in a line: Biochemical EGFR kinase assay (Lance Ultra TR-FRET), double mutant L858R/C797S. A digest of the protocol: as §1
Assay [4] addresses EGFR del19/T790M/C797S (Homo sapiens, UniProt P00533, C797S/DEL746-750/T790M). Briefly: Biochemical EGFR kinase assay (Lance Ultra TR-FRET), triple mutant del19/T790M/C797S. In short, it runs like this: as §1
The target in assay [5] is EGFR del19/C797S (Homo sapiens, UniProt P00533, C797S/DEL746-750). Briefly: Biochemical EGFR kinase assay (Lance Ultra TR-FRET), double mutant del19/C797S. In short, it runs like this:
as §1

[6] abbreviates: IC50 L858R/T790M/C797S, 100 μM ATP.
[7] abbreviates: IC50 del19/T790M/C797S, 100 μM ATP.
[8] abbreviates: ATP at Km, read-out: IC50 L858R/T790M/C797S, Km ATP.
Setting [9] is: ATP at Km, read-out: IC50 WT, Km ATP.
[10] abbreviates: ATP at Km, read-out: IC50 L858R/C797S, Km ATP.
Where [11] appears, read: ATP at Km, read-out: IC50 del19/T790M/C797S, Km ATP.
The mark [12] stands for this setting: ATP at Km, read-out: IC50 del19/C797S, Km ATP.

EGFR L858R/T790M/C797S, sequence (P00533 25-1210 T790M/C797S/L858R): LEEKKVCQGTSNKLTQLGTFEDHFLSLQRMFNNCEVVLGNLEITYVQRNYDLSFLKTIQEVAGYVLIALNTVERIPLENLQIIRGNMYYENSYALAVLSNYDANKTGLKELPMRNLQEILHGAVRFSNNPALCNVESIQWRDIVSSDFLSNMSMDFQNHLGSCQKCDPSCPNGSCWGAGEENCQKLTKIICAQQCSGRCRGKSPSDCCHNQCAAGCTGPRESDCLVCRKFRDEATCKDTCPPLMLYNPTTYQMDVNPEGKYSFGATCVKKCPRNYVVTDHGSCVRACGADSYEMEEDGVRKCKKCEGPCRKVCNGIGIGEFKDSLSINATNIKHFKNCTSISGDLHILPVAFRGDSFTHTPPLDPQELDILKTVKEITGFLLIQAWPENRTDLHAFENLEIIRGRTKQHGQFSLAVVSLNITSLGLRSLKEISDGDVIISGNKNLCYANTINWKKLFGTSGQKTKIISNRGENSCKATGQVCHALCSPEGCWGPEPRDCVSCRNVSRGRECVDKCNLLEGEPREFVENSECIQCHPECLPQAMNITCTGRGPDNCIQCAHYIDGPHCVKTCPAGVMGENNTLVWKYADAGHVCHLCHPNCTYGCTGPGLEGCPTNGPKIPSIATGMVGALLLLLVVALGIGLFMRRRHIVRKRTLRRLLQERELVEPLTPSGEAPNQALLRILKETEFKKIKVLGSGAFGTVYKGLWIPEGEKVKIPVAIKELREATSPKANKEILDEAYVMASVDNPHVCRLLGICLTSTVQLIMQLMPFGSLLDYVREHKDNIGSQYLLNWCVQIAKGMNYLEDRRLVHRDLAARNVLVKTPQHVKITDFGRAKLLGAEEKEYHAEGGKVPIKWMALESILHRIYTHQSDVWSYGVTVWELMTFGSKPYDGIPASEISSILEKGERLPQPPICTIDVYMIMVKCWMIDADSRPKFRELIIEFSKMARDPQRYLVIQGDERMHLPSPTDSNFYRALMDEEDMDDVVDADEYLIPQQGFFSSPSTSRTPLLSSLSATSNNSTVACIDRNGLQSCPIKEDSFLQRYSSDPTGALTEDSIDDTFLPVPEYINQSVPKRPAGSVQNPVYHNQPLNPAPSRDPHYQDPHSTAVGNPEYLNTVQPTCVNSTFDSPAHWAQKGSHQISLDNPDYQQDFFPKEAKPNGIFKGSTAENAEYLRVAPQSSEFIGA
EGFR del19/T790M/C797S, sequence (P00533 with tags, fused parts or gaps DEL746-750/T790M/C797S): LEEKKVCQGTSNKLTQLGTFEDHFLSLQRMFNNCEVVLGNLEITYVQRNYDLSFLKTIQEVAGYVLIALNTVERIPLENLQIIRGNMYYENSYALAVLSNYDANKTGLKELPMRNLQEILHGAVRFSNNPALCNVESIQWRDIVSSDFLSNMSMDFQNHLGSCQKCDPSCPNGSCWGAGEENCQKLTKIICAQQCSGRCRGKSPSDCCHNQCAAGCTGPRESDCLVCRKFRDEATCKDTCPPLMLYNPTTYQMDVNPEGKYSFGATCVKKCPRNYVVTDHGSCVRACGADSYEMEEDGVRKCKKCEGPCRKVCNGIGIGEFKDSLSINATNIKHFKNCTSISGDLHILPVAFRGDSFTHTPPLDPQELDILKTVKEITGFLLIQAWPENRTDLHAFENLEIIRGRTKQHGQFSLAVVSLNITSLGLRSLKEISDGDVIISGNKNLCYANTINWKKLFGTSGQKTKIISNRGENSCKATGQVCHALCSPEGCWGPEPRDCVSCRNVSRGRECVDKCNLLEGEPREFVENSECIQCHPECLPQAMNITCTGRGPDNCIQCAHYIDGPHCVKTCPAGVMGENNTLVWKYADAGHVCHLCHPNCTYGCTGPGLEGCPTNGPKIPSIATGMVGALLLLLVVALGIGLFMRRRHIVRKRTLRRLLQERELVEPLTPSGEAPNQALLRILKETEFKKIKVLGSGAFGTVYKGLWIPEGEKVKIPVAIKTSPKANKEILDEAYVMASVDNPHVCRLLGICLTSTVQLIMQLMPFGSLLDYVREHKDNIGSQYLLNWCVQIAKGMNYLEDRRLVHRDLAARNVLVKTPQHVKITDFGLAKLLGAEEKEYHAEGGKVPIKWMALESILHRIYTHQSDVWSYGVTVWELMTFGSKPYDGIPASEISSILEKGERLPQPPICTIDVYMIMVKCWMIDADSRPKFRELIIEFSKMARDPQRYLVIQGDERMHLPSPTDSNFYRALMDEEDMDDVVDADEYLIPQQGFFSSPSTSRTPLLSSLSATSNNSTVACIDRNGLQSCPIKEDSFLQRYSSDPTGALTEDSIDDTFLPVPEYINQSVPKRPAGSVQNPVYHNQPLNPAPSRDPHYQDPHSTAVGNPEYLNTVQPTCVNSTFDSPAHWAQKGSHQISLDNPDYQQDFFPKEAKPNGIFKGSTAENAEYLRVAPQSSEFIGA
EGFR L858R/C797S, sequence (P00533 25-1210 C797S/L858R): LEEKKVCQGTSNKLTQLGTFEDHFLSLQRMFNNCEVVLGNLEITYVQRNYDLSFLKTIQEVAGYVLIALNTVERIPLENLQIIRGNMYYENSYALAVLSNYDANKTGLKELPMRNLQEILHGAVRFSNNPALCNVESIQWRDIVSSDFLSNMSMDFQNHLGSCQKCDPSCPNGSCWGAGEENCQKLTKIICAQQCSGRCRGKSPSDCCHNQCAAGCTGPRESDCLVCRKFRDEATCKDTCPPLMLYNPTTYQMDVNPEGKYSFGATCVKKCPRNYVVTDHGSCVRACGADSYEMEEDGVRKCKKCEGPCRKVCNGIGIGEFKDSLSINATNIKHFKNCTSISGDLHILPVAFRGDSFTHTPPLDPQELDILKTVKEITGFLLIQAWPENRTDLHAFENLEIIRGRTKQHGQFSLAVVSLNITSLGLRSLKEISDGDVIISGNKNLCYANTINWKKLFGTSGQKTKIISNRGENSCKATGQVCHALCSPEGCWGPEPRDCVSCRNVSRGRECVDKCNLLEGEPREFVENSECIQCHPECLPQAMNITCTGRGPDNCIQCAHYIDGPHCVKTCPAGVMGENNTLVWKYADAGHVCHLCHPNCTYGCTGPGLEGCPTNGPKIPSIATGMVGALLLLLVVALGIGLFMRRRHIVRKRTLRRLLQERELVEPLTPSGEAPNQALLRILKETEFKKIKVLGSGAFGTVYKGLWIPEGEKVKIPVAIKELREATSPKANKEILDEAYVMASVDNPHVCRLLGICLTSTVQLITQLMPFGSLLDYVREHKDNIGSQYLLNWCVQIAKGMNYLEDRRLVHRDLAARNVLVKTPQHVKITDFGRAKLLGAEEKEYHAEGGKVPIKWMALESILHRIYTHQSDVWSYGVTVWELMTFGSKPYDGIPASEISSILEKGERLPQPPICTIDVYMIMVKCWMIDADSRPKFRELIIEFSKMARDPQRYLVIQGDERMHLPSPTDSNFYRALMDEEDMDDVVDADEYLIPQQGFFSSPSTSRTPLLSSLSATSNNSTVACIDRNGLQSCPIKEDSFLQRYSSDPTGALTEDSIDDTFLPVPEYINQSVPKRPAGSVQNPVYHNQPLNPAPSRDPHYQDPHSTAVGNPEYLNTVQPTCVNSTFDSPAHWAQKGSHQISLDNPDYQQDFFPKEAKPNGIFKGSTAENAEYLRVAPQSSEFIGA
EGFR wildtype, sequence (P00533 25-1210): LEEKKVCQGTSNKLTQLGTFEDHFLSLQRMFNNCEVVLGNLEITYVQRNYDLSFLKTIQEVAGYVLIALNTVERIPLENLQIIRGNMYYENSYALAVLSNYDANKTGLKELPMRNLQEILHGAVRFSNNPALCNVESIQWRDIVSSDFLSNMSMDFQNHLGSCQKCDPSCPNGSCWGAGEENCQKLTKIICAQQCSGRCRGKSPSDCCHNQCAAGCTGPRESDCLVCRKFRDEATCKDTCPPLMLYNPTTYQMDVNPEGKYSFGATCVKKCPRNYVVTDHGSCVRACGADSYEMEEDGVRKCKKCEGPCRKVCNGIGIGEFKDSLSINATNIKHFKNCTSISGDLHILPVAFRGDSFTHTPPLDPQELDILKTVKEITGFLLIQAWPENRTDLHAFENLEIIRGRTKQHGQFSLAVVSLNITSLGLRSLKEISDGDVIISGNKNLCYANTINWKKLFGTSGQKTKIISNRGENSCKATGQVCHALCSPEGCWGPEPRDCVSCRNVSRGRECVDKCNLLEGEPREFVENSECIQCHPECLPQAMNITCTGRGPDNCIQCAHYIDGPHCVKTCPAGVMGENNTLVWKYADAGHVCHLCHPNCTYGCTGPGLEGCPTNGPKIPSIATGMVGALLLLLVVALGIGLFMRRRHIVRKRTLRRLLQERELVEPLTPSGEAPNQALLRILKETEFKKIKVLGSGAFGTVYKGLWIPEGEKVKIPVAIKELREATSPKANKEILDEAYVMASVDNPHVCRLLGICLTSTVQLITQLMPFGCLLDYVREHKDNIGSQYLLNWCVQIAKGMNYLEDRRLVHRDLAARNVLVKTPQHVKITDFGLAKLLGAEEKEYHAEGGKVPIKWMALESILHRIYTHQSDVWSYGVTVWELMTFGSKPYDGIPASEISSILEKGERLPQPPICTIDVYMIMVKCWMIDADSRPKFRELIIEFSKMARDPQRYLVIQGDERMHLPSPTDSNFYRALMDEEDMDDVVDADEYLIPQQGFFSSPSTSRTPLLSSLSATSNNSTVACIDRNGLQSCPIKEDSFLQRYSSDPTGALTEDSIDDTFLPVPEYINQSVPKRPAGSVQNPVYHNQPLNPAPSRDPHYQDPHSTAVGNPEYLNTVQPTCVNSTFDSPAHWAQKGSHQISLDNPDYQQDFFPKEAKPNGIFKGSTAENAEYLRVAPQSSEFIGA

As to `CS(=O)(=O)c1ccc(-c2cnc(Nc3ccnc(-c4cnn(S(=O)(=O)C5CC5)c4)n3)cc2N[C@H]2CC[C@@H](CO)CC2)nc1` [Example 158, ((1s,4s)-4-((6′-((2-(1-(Cyclopropylsulfonyl)-1H-pyrazol-4-yl)pyrimidin-4-yl)amino)-5-(methylsulfonyl)-[2,3′-bipyridin]-4′-yl)amino)cyclohexyl)methanol], the IC50 stood at 0.4 nM in assay [1] (setting [6]); 541 nM in assay [2] (IC50 WT, 100 μM ATP); 2.4 nM in assay [3] (IC50 L858R/C797S, 100 μM ATP); 0.3 nM in assay [4] (setting [7]); 0.4 nM in assay [5] (IC50 del19/C797S, 100 μM ATP).

`CC(F)(F)c1ccc(-c2cnc(Nc3ccnc(-c4cnn(S(=O)(=O)C5CC5)c4)n3)cc2N[C@H]2CC[C@@H](C(C)(C)O)CC2)nc1` [Example 242, 2-((1s,4s)-4-((6′-((2-(1-(Cyclopropylsulfonyl)-1H-pyrazol-4-yl)pyrimidin-4-yl)amino)-5-(1,1-difluoroethyl)-[2,3′-bipyridin]-4′-yl)amino)cyclohexyl)propan-2-ol]: the IC50 in assay [1] (setting [8]) is 2.5 nM; in assay [1] (setting [6]) it was 11.3 nM; in assay [2] (setting [9]), 53.5 nM; in assay [2] (IC50 WT, 100 μM ATP), over 10000 nM; in assay [3] (setting [10]), 10.7 nM; in assay [3] (IC50 L858R/C797S, 100 μM ATP) it was 179 nM. For the same compound, the IC50 in assay [4] (setting [11]) was 4.8 nM; in assay [4] (setting [7]), 9.7 nM; in assay [5] (setting [12]) it was 15.2 nM; in assay [5] (IC50 del19/C797S, 100 μM ATP) it was 18.7 nM.

Consider `CN1CCC(Oc2ccc(-c3cnc(Nc4ccnc(-c5cnn(S(=O)(=O)C6CC6)c5)n4)cc3NC3CCC(F)(CO)CC3)nc2)CC1` (centres unmarked) [Example 259, (4-((6′-((2-(1-(Cyclopropylsulfonyl)-1H-pyrazol-4-yl)pyrimidin-4-yl)amino)-5-((1-methylpiperidin-4-yl)oxy)-[2,3′-bipyridin]-4′-yl)amino)-1-fluorocyclohexyl)methanol], for which the IC50 stood at 0.4 nM in assay [1] (setting [8]); 9 nM in assay [2] (setting [9]); 0.2 nM in assay [3] (setting [10]); 1 nM in assay [4] (setting [11]); 1.9 nM in assay [5] (setting [12]).
